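Values below derive from 48-hour exposures of cells grown in 96-well plates, with endpoints linearly interpolated between the two concentrations bracketing the appropriate inhibition level. The concentration for 50% growth inhibition is given as GI50. TGI: total growth inhibition.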
Experiments:
Experiment in all cases: NCI anticancer screen, dose series, 48 h
CAKI-1 renal = system: CAKI-1 renal
U251 CNS = system: U251 CNS
TK-10 renal = system: TK-10 renal
SF-539 CNS = system: SF-539 CNS
SF-295 CNS = system: SF-295 CNS
SK-MEL-5 melanoma = system: SK-MEL-5 melanoma
UACC-62 melanoma = system: UACC-62 melanoma
MCF7 breast = system: MCF7 breast
UACC-257 melanoma = system: UACC-257 melanoma
NCI-H460 lung = system: NCI-H460 lung
SK-MEL-2 melanoma = system: SK-MEL-2 melanoma
OVCAR-8 ovarian = system: OVCAR-8 ovarian
HCT-15 colon = system: HCT-15 colon
HOP-62 NSCLC = system: HOP-62 NSCLC
OVCAR-3 ovarian = system: OVCAR-3 ovarian
SK-MEL-28 melanoma = system: SK-MEL-28 melanoma
PC-3 prostate = system: PC-3 prostate
MDA-MB-435 = system: MDA-MB-435
EKVX NSCLC = system: EKVX NSCLC
NCI/ADR-RES ovarian = system: NCI/ADR-RES ovarian
UO-31 renal = system: UO-31 renal
T-47D breast = system: T-47D breast
OVCAR-4 ovarian = system: OVCAR-4 ovarian
SF-268 CNS = system: SF-268 CNS
COLO 205 colon = system: COLO 205 colon
RXF 393 renal = system: RXF 393 renal
NCI-H226 lung = system: NCI-H226 lung
SNB-75 CNS = system: SNB-75 CNS
CCRF-CEM leukemia = system: CCRF-CEM leukemia
A549 NSCLC = system: A549 NSCLC
MOLT-4 leukemia = system: MOLT-4 leukemia
DU-145 prostate = system: DU-145 prostate
SN12C renal = system: SN12C renal
HT29 colon = system: HT29 colon
OVCAR-5 ovarian = system: OVCAR-5 ovarian
HOP-92 NSCLC = system: HOP-92 NSCLC
SW-620 colon = system: SW-620 colon
HL-60(TB) leukemia = system: HL-60(TB) leukemia
MALME-3M melanoma = system: MALME-3M melanoma
SK-OV-3 ovarian = system: SK-OV-3 ovarian
MDA-MB-231 breast = system: MDA-MB-231 breast
A498 renal = system: A498 renal
ACHN renal = system: ACHN renal
HCT-116 colon = system: HCT-116 colon
786-0 renal = system: 786-0 renal
HCC-2998 colon = system: HCC-2998 colon
LOX IMVI melanoma = system: LOX IMVI melanoma
BT-549 breast = system: BT-549 breast
IGROV1 ovarian = system: IGROV1 ovarian
HS 578T breast = system: HS 578T breast
SNB-19 CNS = system: SNB-19 CNS
KM12 colon = system: KM12 colon
NCI-H522 lung = system: NCI-H522 lung

Oc1cc(Cn2cnc3c(Cl)nc(Cl)nc32)ccc1C12CC3CC(CC(C3)C1)C2
GI50 (CAKI-1 renal): 15.4 µM | TGI (CAKI-1 renal): 31.3 µM | GI50 (U251 CNS): 16.6 µM | TGI (U251 CNS): 30.2 µM | GI50 (TK-10 renal): 19.5 µM | TGI (TK-10 renal): 38.8 µM | GI50 (SF-539 CNS): 23.6 µM | TGI (SF-539 CNS): 45.1 µM | GI50 (SF-295 CNS): 20.5 µM | TGI (SF-295 CNS): 47.9 µM | GI50 (SK-MEL-5 melanoma): 15 µM | TGI (SK-MEL-5 melanoma): 32 µM | GI50 (UACC-62 melanoma): 16.8 µM | TGI (UACC-62 melanoma): 30.5 µM | GI50 (MCF7 breast): 15 µM | TGI (MCF7 breast): 28.3 µM | GI50 (UACC-257 melanoma): 19 µM | TGI (UACC-257 melanoma): 39.2 µM | GI50 (NCI-H460 lung): 16.4 µM | TGI (NCI-H460 lung): 30.2 µM | GI50 (SK-MEL-2 melanoma): 18.4 µM | TGI (SK-MEL-2 melanoma): 38 µM | GI50 (OVCAR-8 ovarian): 23.2 µM | TGI (OVCAR-8 ovarian): 58 µM | GI50 (HCT-15 colon): 16.3 µM | TGI (HCT-15 colon): 29.8 µM | GI50 (HOP-62 NSCLC): 16.2 µM | TGI (HOP-62 NSCLC): 29.8 µM | GI50 (OVCAR-3 ovarian): 18 µM | TGI (OVCAR-3 ovarian): 36.3 µM | GI50 (SK-MEL-28 melanoma): 16.9 µM | TGI (SK-MEL-28 melanoma): 31 µM | GI50 (PC-3 prostate): 15.5 µM | TGI (PC-3 prostate): 28.9 µM | GI50 (MDA-MB-435): 19.9 µM | TGI (MDA-MB-435): 48.6 µM | GI50 (EKVX NSCLC): 23.8 µM | TGI (EKVX NSCLC): 53.1 µM | GI50 (NCI/ADR-RES ovarian): 21.9 µM | TGI (NCI/ADR-RES ovarian): 57.2 µM | GI50 (UO-31 renal): 17.3 µM | TGI (UO-31 renal): 31.1 µM | GI50 (T-47D breast): 21.8 µM | TGI (T-47D breast): 80.6 µM | GI50 (OVCAR-4 ovarian): 16.4 µM | TGI (OVCAR-4 ovarian): 30 µM | GI50 (SF-268 CNS): 14.4 µM | TGI (SF-268 CNS): 28 µM | GI50 (COLO 205 colon): 19.9 µM | TGI (COLO 205 colon): 37.2 µM | GI50 (RXF 393 renal): 15.2 µM | TGI (RXF 393 renal): 29.3 µM | GI50 (NCI-H226 lung): 23.3 µM | TGI (NCI-H226 lung): 63.7 µM | GI50 (SNB-75 CNS): 16.4 µM | TGI (SNB-75 CNS): 32.2 µM | GI50 (CCRF-CEM leukemia): 2170 nM | TGI (CCRF-CEM leukemia): 5.78 µM | GI50 (A549 NSCLC): 18.1 µM | TGI (A549 NSCLC): 33.2 µM | GI50 (MOLT-4 leukemia): 3.72 µM | TGI (MOLT-4 leukemia): 11.2 µM | GI50 (DU-145 prostate): 16.2 µM | TGI (DU-145 prostate): 29.7 µM | GI50 (SN12C renal): 16.5 µM | TGI (SN12C renal): 32.2 µM | GI50 (HT29 colon): 16 µM | TGI (HT29 colon): 29.5 µM | GI50 (OVCAR-5 ovarian): 20.2 µM | TGI (OVCAR-5 ovarian): 45.7 µM | GI50 (HOP-92 NSCLC): 14.6 µM | TGI (HOP-92 NSCLC): 27.8 µM | GI50 (SW-620 colon): 24.6 µM | TGI (SW-620 colon): 56.8 µM | GI50 (HL-60(TB) leukemia): 4.36 µM | TGI (HL-60(TB) leukemia): 15.7 µM | GI50 (MALME-3M melanoma): 11.8 µM | TGI (MALME-3M melanoma): 27.8 µM | GI50 (SK-OV-3 ovarian): 24.7 µM | TGI (SK-OV-3 ovarian): 55.1 µM | GI50 (MDA-MB-231 breast): 15 µM | TGI (MDA-MB-231 breast): 30.3 µM | GI50 (A498 renal): > 100 µM | TGI (A498 renal): > 100 µM | GI50 (ACHN renal): 17.9 µM | TGI (ACHN renal): 31.7 µM | GI50 (HCT-116 colon): 14 µM | TGI (HCT-116 colon): 26.9 µM | GI50 (786-0 renal): 18.5 µM | TGI (786-0 renal): 34.4 µM | GI50 (HCC-2998 colon): 16 µM | TGI (HCC-2998 colon): 30.4 µM | GI50 (LOX IMVI melanoma): 4.12 µM | TGI (LOX IMVI melanoma): 18.6 µM | GI50 (BT-549 breast): 17.5 µM | TGI (BT-549 breast): 34.4 µM | GI50 (IGROV1 ovarian): 15.8 µM | TGI (IGROV1 ovarian): 30 µM | GI50 (HS 578T breast): 49.6 µM | TGI (HS 578T breast): > 100 µM | GI50 (SNB-19 CNS): 17.6 µM | TGI (SNB-19 CNS): 31.4 µM | GI50 (KM12 colon): 17.5 µM | TGI (KM12 colon): 34.4 µM | GI50 (NCI-H522 lung): 15.2 µM | TGI (NCI-H522 lung): 28.5 µM

— PubChem BioAssay (NCI)
